Experimental data as given in patent US20250075248A1, “SYSTEMS, METHODS, AND DEVICES FOR ANTIMICROBIAL SUSCEPTIBILITY TESTING” (Deepull Diagnostics S.L., priority 2022, published 2025).
In brackets after ≈: the same amount, converted by molar mass.

Columns and labels:
Assay type in all cases: cell-based
[1] = system: Staphylococcus aureus susceptible (ATCC29213); assay: Broth microdilution method MIC; settings: S. aureus ATCC29213
[2] = system: Staphylococcus aureus resistant (ATCC43300); assay: Broth microdilution method MIC; settings: S. aureus ATCC43300
[3] = system: Staphylococcus aureus susceptible (ATCC29213); assay: Microscopy-based AST (MIC) from liquid culture
Description: (§1) The minimal inhibitory concentration was determined for two strains of Gram-positive bacteria Staphylococcus aureus, one susceptible (ATCC29213) and one resistant (ATCC43300) to erythromycin, according to embodiments described herein. […] Bacteria cultures were diluted in culture media (Mueller Hinton cation adjusted broth) and were incubated at a final concentration of 2×10^4 CFU/mL during 5 hours at 37° C. at different concentrations of […] in a final volume of 10 μL. S. aureus strain susceptible to erythromycin was tested at 1, 0.5, 0.25, 0.125, 0.06 and 0.03 mg/L, whereas resistant strain was tested at 4, 2, 1, 0.5, 0.25 and 0.125 mg/L of erythromycin. Three replicates were performed for each antibiotic concentration.
(§2) Samples were analyzed at time 0 of incubation and after 5 hours incubation (with and without antibiotic). Samples were incubated with fluorescence dyes (SYBR Green and Propidium Iodide) during 10 minutes at room temperature in the dark. After dye incubation a sample of 1 μL was diluted with 4 μL of buffer (NaCl 0.9%) and transferred to a 384-well plate with flat polystyrene film bottom. The 384-well plate was centrifuged during 1 minute at 3000 g in a swinging-bucket movement and observed in an inverted fluorescence microscope. For each sample, a composite image covering the bottom of each well was constructed. Images were analyzed with a custom software to count bacteria, detect filamentous bacteria, counts red bacteria, and record the brightness of bacteria.
(§3) Data obtained from images was used to perform a Graph either for S. aureus susceptible and resistant to erythromycin (FIGS. 25A and 25B, respectively).

[4] = system: Staphylococcus aureus resistant (ATCC43300); assay: Microscopy-based AST (MIC) from liquid culture
Description: as §1, §2, §3

[5] = system: Klebsiella pneumoniae (IHMA1977064); assay: Microscopy-based AST (MIC) from liquid culture
Description: The minimal inhibitory concentration was determined using embodiments disclosed herein for one strain of Gram-negative bacteria Klebsiella pneumoniae (IHMA1977064) with an MIC of 8 mg/L to meropenem according to the broth microdilution method. Bacteria was grown in liquid culture until an exponential phase in culture media. The cultures were diluted in culture media (Mueller Hinton cation adjusted broth) and was incubated at a final concentration of 2×10^4 CFU/mL during 5 hours at 37° C. at different concentrations of meropenem in a final volume of 10 μL. Meropenem concentrations tested were 32, 16, 8, 4, 2 and 1 mg/L […]. Three replicates were performed for each antibiotic concentration.
Samples were analyzed at time 0 of incubation and after 5 hours incubation (with and without antibiotic). 5 μL of each sample were transferred to a 384-well plate with flat polystyrene film bottom and incubated with fluorescence dyes (SYBR Green and Propidium Iodide) during 10 minutes at room temperature in the dark. The 384-well plate was centrifuged during 1 minute at 3000 g in a swinging-bucket movement and observed in an inverted fluorescence microscope. For each sample, a composite image covering the bottom of each well was constructed. Images were analyzed with a custom software to count bacteria, detect filamentous bacteria, counts red bacteria, and record the brightness of bacteria. These images are illustrated in FIG. 24A.
This graph is illustrated in FIG. 24B.

[6] = system: Klebsiella pneumoniae (IHMA1977064); assay: Broth microdilution method MIC; settings: K. pneumoniae IHMA1977064, read-out: MIC according to broth microdilution method
[7] = system: Klebsiella pneumoniae (ATCC13883); assay: Microscopy-based AST (MIC) from liquid culture
Description: Bacteria was grown in a liquid culture until an exponential phase in culture media. The cultures were diluted in culture media (Mueller Hinton cation adjusted broth) and was incubated at a final concentration of 2×10^4 CFU/mL during 5 hours at 37° C. at different concentrations of […] in a final volume of 10 μL. Gentamicin concentrations tested were 4, 2, 1, 0.5, 0.25 and 0.125 mg/L. Three replicates were performed for each antibiotic concentration.
as §2, with “dye incubation,” for “dye incubation”, “bacteria. These images are illustrated in FIG. 23A” for “bacteria.”
This graph is illustrated in FIG. 23B.

[8] = system: Klebsiella pneumoniae ATCC13883; assay: Microscopy-based AST (MIC) from spiked blood culture bottle after immunomagnetic separation
Description: First, Streptavidin coated beads were washed and immobilized. The washing buffer and the immobilization process may be different depending on the application. […] The typical binding capacity per mg (100 μL) of magnetic beads used is approximately 20 μg of biotinylated antibody. After the coating, some washes were performed with a phosphate saline buffer containing 0.01% of BSA (w/v) (adjusted pH 7.4) and then beads were finally resuspended to the desired concentration for the application. The antibody used was a biotin Klebsiella Polyclonal Antibody (PA1-73177, Invitrogen) and the magnetic beads used were Dynabeads MyOne Streptavidin T1 (65601, Thermofisher Scientific).
Blood samples were prepared from a previously mixed single large blood pool which was spiked with the appropriate amount of bacteria (Klebsiella pneumoniae ATCC13883) depending on the target inoculum (around 100 CFU). After the pool was spiked, 10 mL were transferred to a previously labelled blood culture system (442023, BD BACTEC™ Plus Aerobic/F) and mixed with an agitation platform (5 minutes at 150 rpm). […]
The immunomagnetic separation of the bacteria was performed using a 15 mL tube containing 5 mL of a matrix extracted from a blood culture bottle and 100 μL of beads coated with anti-K. pneumoniae antibodies. […] The samples were also observed under an inverted fluorescence microscope in order to determine the number of bacteria present in the sample and calculate the adjustment needed to perform the AST test. 5 μL of each sample were transferred to a 384-well plate with flat polystyrene film bottom and incubated with fluorescence dyes (SYBR Green and Propidium Iodide) during 10 minutes at room temperature in the dark. The 384-well plate was centrifuged during 1 minute at 3000 g in a swinging-bucket centrifuge and observed in an inverted fluorescence microscope. […] Images were analyzed with a custom software to determine the number of bacteria. […]
Samples were analyzed at time 0 of incubation and after 5 h incubation (with and without antibiotic). […]

[9] = system: Klebsiella pneumoniae ATCC13883; assay: Broth microdilution method MIC; settings: K. pneumoniae ATCC13883, read-out: MIC according to broth microdilution method
[10] = system: Klebsiella pneumoniae ATCC13883; assay: Microscopy-based AST (MIC) from spiked blood tube sample after lysis, enrichment and immunomagnetic separation
Description: First, Streptavidin coated beads were washed and immobilized. […] The typical binding capacity per mg (100 μL) of the magnetic beads used is approximately 20 μg of biotinylated antibody. After the coating, some washes with a phosphate saline buffer containing 0.01% of BSA (w/v) (adjusted pH 7.4) were performed. Finally, beads were resuspended to the desired concentration for the application. The antibody used was a biotin Klebsiella Polyclonal Antibody (PA1-73177, Invitrogen) and the magnetic beads used were Dynabeads MyOne Streptavidin T1 (65601, Thermofisher Scientific).
Blood samples were prepared from a single large blood pool from donors collected in 10 mL EDTA blood tubes which was spiked with the appropriate amount of bacteria (Klebsiella pneumoniae ATCC13883) depending on the target inoculum (around 100 CFU/10 mL). After the pool was spiked, 10 mL were transferred to a previously labelled 15 mL tube containing a lysing agent (700 μL of Isolator BC0507C, Oxoid) and an immiscible fluorocarbon oil (20 μL of Fluorinert™ FC-40 F9755, Sigma-Aldrich). To lyse and concentrate, samples were incubated for a short period of time (30 seconds) under rotatory movement at low speed (10 rpm) and centrifugated at 12.000 g force for 5 minutes with a fixed angle rotor. The supernatant of each sample was discarded until 500 μL used to prepare the matrix for the enrichment step. […]
For the immunomagnetic separation of the bacteria from the blood, 100 μL of antibody coated beads were added to each sample tube. […] These samples were also observed under an inverted fluorescence microscope in order to know the bacteria present in the sample and calculate the amount needed to perform the AST test, which was the next and last step in this end-to-end assay. 5 μL of each sample were transferred to a 384-well plate with a flat polystyrene film bottom and incubated with fluorescence dyes (SYBR Green and Propidium Iodide) during 10 min at room temperature in the dark. […]

## CC[C@H]1OC(=O)[C@H](C)[C@@H](O[C@H]2C[C@@](C)(OC)[C@@H](O)[C@H](C)O2)[C@H](C)[C@@H](O[C@@H]2O[C@H](C)C[C@H](N(C)C)[C@H]2O)[C@](C)(O)C[C@@H](C)C(=O)[C@H](C)[C@@H](O)[C@]1(C)O [erythromycin, Erythromycin]
[1]
  MIC: 0.25 to 0.5 µg/mL (≈ 0.341 to 0.681 µM)
[2]
  MIC: ≥ 512 µg/mL
[3]; Staphylococcus aureus, S. aureus ATCC29213, 2×10^4 CFU/mL, 5 hours at 37° C., image analysis
  MIC: 0.25 µg/mL (≈ 0.341 µM)
[3]; at 0.125 mg/L
  bacterial growth after 5 hours incubation: showed growth
[3]; at a concentration ≥0.25 mg/L
  bacterial growth after 5 hours incubation: did not grow
[4]; Staphylococcus aureus, S. aureus ATCC43300, 2×10^4 CFU/mL, 5 hours at 37° C., highest concentration tested 4 mg/L
  MIC: ≥ 4 µg/mL
[4]; at 4 mg/L and lower concentrations
  bacterial growth after 5 hours incubation: showed growth

## C[C@@H](O)[C@H]1C(=O)N2C(C(=O)O)=C(S[C@@H]3CN[C@H](C(=O)N(C)C)C3)[C@H](C)[C@H]12 [meropenem, Meropenem]
[5]; Klebsiella pneumoniae, liquid culture, 2×10^4 CFU/mL, 5 hours at 37° C., image analysis
  MIC: 4 µg/mL (≈ 10.4 µM)
[5]; at 2 and 1 mg/L
  bacterial growth after 5 hours incubation: bacterial growth
[5]; at a concentration ≥4 mg/L
  bacterial growth after 5 hours incubation: did not grow
[6]
  MIC: 8 µg/mL (≈ 20.9 µM)

## Gentamicin
[7]; at 0.125 mg/L
  bacterial growth after 5 hours incubation: bacterial growth
[7]; at a concentration ≥0.25 mg/L
  bacterial growth after 5 hours incubation: did not grow
[7]; liquid culture, 2×10^4 CFU/mL, 5 hours at 37° C., image analysis
  MIC: 0.25 µg/mL
[8]; at 0.125 and 0.06 mg/L
  bacterial growth after 5 hours incubation: growth
[8]; at a concentration ≥0.25
  bacterial growth after 5 hours incubation: did not grow
[8]; blood culture bottle sample, 2×10^4 CFU/mL, 5 hours at 37° C., image analysis
  MIC: 0.25 µg/mL

## O=C(O)c1cn(C2CC2)c2cc(N3CCNCC3)c(F)cc2c1=O [ciprofloxacin, Ciprofloxacin]
[9]
  MIC: 0.03 µg/mL (≈ 0.0905 µM)
[10]; Klebsiella pneumoniae, ATCC13883, 5 h
  MIC: 0.015 µg/mL (≈ 0.0453 µM)
[10]; at 0.008 and 0.004 mg/L
  bacterial growth after 5 hours incubation: growth
[10]; at a concentration ≥0.015 mg/L
  bacterial growth after 5 hours incubation: did not grow
